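48-hour exposure; five concentrations; linearly interpolated endpoints. GI50: concentration for 50% inhibition of growth. Definition used: TGI = concentration required for complete inhibition of growth.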
Each compound was assayed on HOP-92 NSCLC (assay: growth of human tumour cells (NCI), 48 h).

How did the GI50 turn out when `Cc1[cH-]c(=O)n(-c2ccccc2)n1.[Au+].[Au].c1ccc([PH+](c2ccccc2)c2ccccc2)cc1.c1ccc([PH+](c2ccccc2)c2ccccc2)cc1` was run?
Its GI50 is 2.79 µM.

And the TGI?
Its TGI is 7.77 µM.

With `CC1(C)CC(c2c[nH]c3ccccc23)=CC2=Nc3ccccc3C21O` (stereo not drawn) as the compound, how does the TGI read?
Its TGI is 64.3 µM.

`CN1C(=O)C(=O)N2c3ccc(Cl)cc3C3(c4ccccc4)N=CC12O3` (stereo not drawn) was tested. Which TGI did it give?
The TGI was 6.63 µM.

`N#CCCC[Si]12OCCN(CCO1)CCO2` was tested. Which TGI did it give?
Its TGI is > 100 µM.

For `O=C(/C=C/c1c(O)ccc2ccccc12)c1ccc([N+](=O)[O-])cc1`, which TGI is on record?
The TGI was 30.9 µM.

For `CN1CCN(c2ccc(Nc3ncc(Cl)c(NC[C@@H]4CCCO4)n3)cc2)CC1`, which GI50 is on record?
Its GI50 is 1.68 µM.

And the TGI?
The TGI was 6.44 µM.

What follows are compounds tested on SNB-19 CNS (assay: growth of human tumour cells (NCI), 48 h).

`C[C@@]1(O)CC[C@]2(C)C3CCCC3[C@H]12` (stereo partly drawn) was tested. Which TGI did it give?
Its TGI is > 100 µM.

With `O=C1OCC2=C1C(c1cccc(Br)c1)c1cc3c(cc1N2CCO)OCCO3` (stereo not drawn) as the compound, how does the GI50 read?
The GI50 was 0.0846 µM.

And the TGI?
The TGI was > 50 µM.

`COc1ccc(Cn2c(Br)c3c(c2Br)-c2nc(N)sc2CC3)cc1` was tested. Which GI50 did it give?
Its GI50 is 8.68 µM.

What about the TGI of the same compound?
The TGI was > 100 µM.

For `CC(=O)[O-].CC(=O)[O-].O=C(N/N=C/c1cc(Cl)cc(Cl)c1O)c1ccncc1.[Cu+2]`, which TGI is on record?
The TGI was > 100 µM.

`O=C(Nc1nc(=S)[nH][nH]1)C(=O)C(C(=O)c1ccc2ccccc2c1)C1OC(=O)c2ccccc21` (stereo not drawn) was tested. Which TGI did it give?
Its TGI is 33.3 µM.

For `Cc1nnc2ccnn2c1C`, which GI50 is on record?
Its GI50 is > 100 µM.

What about the TGI of the same compound?
Its TGI is > 100 µM.

With `CCOC(=O)C1=C(C)N(NC(=O)Nc2ccccc2)C2(N)N(NC(=O)Nc3ccccc3)C(C)=C(C(=O)OCC)C12C(=O)OCC` (stereo not drawn) as the compound, how does the TGI read?
Its TGI is > 100 µM.

With `Cn1cc(-c2cc3c(N4CCN(c5ncc([C@@](C)(N)c6ccc(F)cc6)cn5)CC4)ncnn3c2)cn1` as the compound, how does the GI50 read?
The GI50 was 9.63 µM.

And the TGI?
The TGI was > 100 µM.

Which TGI does the source give for `O=C(O)CSc1n[nH]c(-c2ccccc2O)n1` here?
Its TGI is > 100 µM.

For `Cc1nc(-c2nc(C)c(C(=O)NNC(=O)C[n+]3ccccc3)s2)sc1C(=O)NNC(=O)C[n+]1ccccc1`, which TGI is on record?
The TGI was > 100 µM.

Which TGI does the source give for `CN(C)C=Nc1nc(=O)n(C2CCC(CO)O2)cc1F` (stereo not drawn) here?
The TGI was > 100 µM.

Which TGI does the source give for `Cc1ccc(S(=O)(=O)N2CCC2c2ccccc2)cc1` (stereo not drawn) here?
The TGI was > 100 µM.

How did the TGI turn out when `CCCOc1nc(N)c2cnn(C3CCCCO3)c2n1` (stereo not drawn) was run?
The TGI was > 100 µM.

For `C/C(CN1C(=O)c2ccccc2C1=O)=N\NS(=O)(=O)c1ccc(Cl)cc1`, which TGI is on record?
The TGI was > 100 µM.

With `C[C@@H]1CC[C@H]2C(C)(C)[C@H]3C[C@@]12CC[C@@]3(C)O` as the compound, how does the TGI read?
Its TGI is > 100 µM.

`COc1ccc(/C=C/COC(C)=O)cc1OC` was tested. Which TGI did it give?
Its TGI is > 100 µM.

`C=C(C)C(=O)O[C@@H]1C[C@@]2(C)O[C@@H]2C[C@H](O)/C(C)=C/[C@H]2OC(=O)C(=C)[C@@H]21` was tested. Which TGI did it give?
The TGI was > 100 µM.

Which GI50 does the source give for `Cc1ccc(-c2nc(N3CCNCC3)c3oc(-c4ccc(C)cc4)nc3n2)cc1` here?
The GI50 was 2.6 µM.

And the TGI?
Its TGI is 7.02 µM.

How did the GI50 turn out when `[O-][Cl+3]([O-])([O-])[O-].[O]=[Ru]=[O].c1ccc(-c2ccccn2)nc1.c1ccc(-c2ccccn2)nc1` was run?
The GI50 was 65.2 µM.

And the TGI?
Its TGI is > 100 µM.

What does the source list for `C=C1C(=O)O[C@H]2[C@H]1CC/C(CNC(=O)c1cc3ccccc3[nH]1)=C\CC[C@@]1(C)O[C@@H]21`?
GI50: 7.73 µM; TGI: 23 µM

With `Cc1cc2c(cc1C)[n+](=O)c(C(=O)c1ccccc1)c(C(F)F)n2[O-]` as the compound, how does the GI50 read?
Its GI50 is 44.2 µM.

What about the TGI of the same compound?
The TGI was > 100 µM.

Which GI50 does the source give for `Cc1ccc(NC2=C3CCCCC3OC2=O)cc1` (stereo not drawn) here?
The GI50 was 63.8 µM.

What about the TGI of the same compound?
The TGI was > 100 µM.

For `COc1cc2c(cc1OC)C(Cl)C(c1ccc(F)cc1)=C2Cl` (stereo not drawn), which TGI is on record?
Its TGI is 37.5 µM.

Which TGI does the source give for `CN(C)c1ccc(/C=N/NC(=S)Nc2ccccc2)cc1` here?
Its TGI is > 100 µM.

What does the source list for `O=C1C(C(Nc2ccccc2)c2ccccc2)=C([O-])c2ccccc21.O=C1C(C(Nc2ccccc2)c2ccccc2)=C([O-])c2ccccc21.[Cu+2]` (stereo not drawn)?
GI50: > 100 µM; TGI: > 100 µM

How did the TGI turn out when `CCOC(=O)C1Sc2ccccc2N=C1C` (stereo not drawn) was run?
The TGI was > 100 µM.

Which TGI does the source give for `COC1=CC(=O)C(C2(OC(C)C)OC(=O)C(Cl)=C2Cl)=CC1=O` (stereo not drawn) here?
Its TGI is > 100 µM.

For `O=C(NC1C=CCC2C(=O)N(c3ccccc3)C(=O)C12)OCc1ccccc1` (stereo not drawn), which TGI is on record?
Its TGI is > 100 µM.

For `CCC(C)SC1SCC2C(=O)N(C)C3(CC3C)C(=O)OCC(NC(=O)c3nc4ccccc4cc3O)C(=O)NC(C)C(=O)N(C)C1C(=O)N(C)C1(CC1C)C(=O)OCC(NC(=O)c1nc3ccccc3cc1O)C(=O)NC(C)C(=O)N2C` (stereo not drawn), which TGI is on record?
The TGI was 0.0296 µM.

For `Cc1[cH-]c(=O)n(-c2ccccc2)n1.[Au+].[Au].c1ccc([PH+](c2ccccc2)c2ccccc2)cc1.c1ccc([PH+](c2ccccc2)c2ccccc2)cc1`, which GI50 is on record?
Its GI50 is 12.5 µM.

And the TGI?
The TGI was 32.7 µM.

With `CC1(C)CC(c2c[nH]c3ccccc23)=CC2=Nc3ccccc3C21O` (stereo not drawn) as the compound, how does the TGI read?
The TGI was > 100 µM.

Which TGI does the source give for `CN1C(=O)C(=O)N2c3ccc(Cl)cc3C3(c4ccccc4)N=CC12O3` (stereo not drawn) here?
The TGI was 26.8 µM.

How did the TGI turn out when `N#CCCC[Si]12OCCN(CCO1)CCO2` was run?
The TGI was > 100 µM.

Which TGI does the source give for `O=C(/C=C/c1c(O)ccc2ccccc12)c1ccc([N+](=O)[O-])cc1` here?
Its TGI is > 100 µM.
